The results in this text go back to patent publication US10918648B2, “Estrogen receptor modulator combinations” (The Regents of the University of California, priority 2016, dated 2021).

One assay deals with T1, estrogen receptor (Homo sapiens, UniProt P03372).
T1 construct: endogenous in cells; host or cells: MCF-7 parental (MCF-7/CON) human breast cancer cells
T1 sequence (P03372 1-595): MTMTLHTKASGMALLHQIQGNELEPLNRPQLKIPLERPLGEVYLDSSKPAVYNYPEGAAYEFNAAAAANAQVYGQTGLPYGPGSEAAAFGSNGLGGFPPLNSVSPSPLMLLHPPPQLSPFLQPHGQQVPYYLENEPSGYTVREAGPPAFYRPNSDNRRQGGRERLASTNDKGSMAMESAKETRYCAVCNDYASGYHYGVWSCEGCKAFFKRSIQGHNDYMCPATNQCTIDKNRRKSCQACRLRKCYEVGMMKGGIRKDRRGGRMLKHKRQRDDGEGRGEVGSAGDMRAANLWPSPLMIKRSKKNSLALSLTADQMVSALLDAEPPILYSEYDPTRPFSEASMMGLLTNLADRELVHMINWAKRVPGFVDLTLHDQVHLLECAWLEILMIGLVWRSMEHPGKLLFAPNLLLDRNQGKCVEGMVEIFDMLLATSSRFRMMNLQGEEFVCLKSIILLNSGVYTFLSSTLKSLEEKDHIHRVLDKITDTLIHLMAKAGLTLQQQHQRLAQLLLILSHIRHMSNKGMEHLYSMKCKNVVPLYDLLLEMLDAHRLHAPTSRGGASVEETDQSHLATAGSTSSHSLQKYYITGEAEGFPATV
Briefly: Specific [3H]estradiol-17β binding by MCF-7 parental cells. The settings on record: 2 nM [3H]estradiol-17β, compounds at 10 μM, FIG. 5A. How it is done: Specific estradiol binding: Specific estradiol-17β (E2) binding was assessed in MCF-7 parental breast cancer cells as before (14-16). […] MCF-7 cells were incubated with 2 nM [^3H]estradiol-17β and antiestrogens (all at 10 μM concentration; numbers Si to S15), with ICI 182,780 (ICI; fulvestrant) used as a control (n=3). Compounds S1-S14 are test compounds different from the exemplified compounds described herein.

The test system of assay [1] is MAPK: ERK-1 (p44) and ERK-2 (p42). The assay is described as follows: Estrogen-induced MAPK phosphorylation, Western blot in MCF-7 cells. It is filed as cell-based, human. To be noted: MCF-7 parent cells, 1 nM estradiol (E2); antagonists pre-incubated at 1000 nM; FIG. 7A. The procedure:
ERD inhibition of phosphorylation of MAPK, at both extracellular signal-regulated kinases ERK-1 (p44) and ERK-2 (p42) and downstream effects. […] Thus, we measured estrogen-induced phosphorylation of MAPK by established methods (9,15,16). Briefly, MCF-7 parental cells were estrogen deprived for 48 hrs, then treated with 1 nM estradiol-1713 in the presence of new compounds (10 nM-10 μM) to be tested for antagonist activity. After treatments, cell lysates were separated by SDS-PAGE followed by Western blot using a polyclonal antibody directed to phospho-p44/p42 MAP kinase (Thr202/Tyr204) (Cell Signaling). Immunodetection with antibody against total p44/p42 (Cell Signaling) was done as a control for gel loading. […] ERD S15 was as effective as fulvestrant in inhibiting the rapid estrogen-induced MAPK phosphorylation in breast tumor cells in vitro. […] E2 but not vehicle (CN) induced rapid phosphorylation of ERK-1 (p44) and ERK-2 (p42). This activation was prevented when cells were pre-incubated with 1000 nM ICI 182,780 (ICI; Faslodex) or 1000 nM compound S15 in the presence of estradiol (E2).
In general terms: A western blot detects proteins with antibodies after separation by electrophoresis.

Another assay deals with cyclin D1. Briefly: Cyclin D1 expression, Western immunoblot in MCF-7 cells. The assay is classed as cell-based, human. The settings on record: 24 hrs, 10% FBS, 1 μM and 10 μM, FIG. 7B. How it is done:
FIG. 7B. […] Western immunoblot of cyclin D1 after treating MCF-7 cells 24 hrs with 10% FBS and 1 μM and 10 μM doses of JD105, JD128 and JD140. Refer to FIG. S4 methods and previous reports (20).
Next, SERD compounds developed in our laboratory were tested for a capability to suppress the expression of cyclin D1 in ERα-positive human breast cancer cells MCF-7 which were used to validate the activity of other hormonal agents previously (see 20) (FIG. 7B).
Gel electrophoresis and immunoblotting: Breast and lung tumor cells were treated in phenol-red free RPMI1640/DMEM with 5% DCC-FBS (26). After selected treatments cells were homogenized in the presence of protease inhibitors using RIPA buffer (Thermo Scientific). All procedures were performed in ice, lysates were centrifuged and protein concentration quantified in the supernatants using a Thermo Scientific® BCA protein assay kit. Approximately 20-60 μg of total protein were heated in the presence of Laemmli sample buffer (Biorad) to 100° C. for 10 min and loaded it on a gradient TGX gel 4-15% (Biorad). Gels were transferred to PVDF membranes for immunoblotting. Membranes were blocked either with 5% milk in Tris Buffer Saline with 0.1% Tween 20 or protein-free blocking solution (Thermo Scientific). […]

Turning to `C[C@]12C[C@H](Oc3ccc(N)cc3)[C@@H]3c4ccc(O)cc4CC[C@H]3[C@@H]1CC[C@@H]2O` [JD105, (8S,9S,11S,13S,14S,17S)-11-(4-aminophenoxy)-13-methyl-7,8,9,11,12,13,14,15,16,17-decahydro-6H-cyclopenta[a]phenanthrene-3,17-diol], the figures for the “specific binding of [3H]estradiol-17β” value on estrogen receptor and at estrogen receptor (listed as S15) were “suppressed” and “suppressed effectively”, respectively. Moreover, the “phosphorylation of MAPK (ERK-1 p44 and ERK-2 p42)” value in assay [1] is “inhibits phosphorylation of MAPK”.
Take `C[C@]12C[C@H](Oc3ccc(N)c(C(F)(F)F)c3)[C@@H]3c4ccc(O)cc4CC[C@H]3[C@@H]1CC[C@@H]2O` [JD128, (8S,9S,11S,13S,14S,17S)-11-(4-Amino-3-(trifluoromethyl)phenoxy)-13-methyl-7,8,9,11,12,13,14,15,16,17-decahydro-6H-cyclopenta[a]phenanthrene-3,17-diol]: the “cyclin D1 expression” value in the assay with cyclin D1 is “down-regulates cyclin D1”.
